Patent US20250197359A1, “CANNABINOID RECEPTOR MODULATING COMPOUNDS” (The U.S.A., as Represented by the Secretary, Department of …, priority 2022, published 2025)
Like-named read-outs stand apart in the source and are kept apart here.

Target: CB1 (UniProt P21554)
Assay: CB1 radioligand binding assay
Parameters: species or system human
Procedure: The target compounds were evaluated in vitro at the human CB1 receptor, stably expressed into Chinese hamster ovary (CHO) cells by utilizing radioligand binding studies.
The binding constant for the synthesized compounds were determined by using radioligand binding assay in mouse brain membranes as well as the target compounds were evaluated in vitro at the human CB1 receptor, stably expressed into Chinese hamster ovary (CHO) cells as well as mouse brain membrane CB1. […]

| SMILES | Ki (read-out: Ki (CB1)) [nM] | Ki (read-out: Ki (CB1) in nM) [nM] |
| --- | --- | --- |
| CCC(N/C(=N/S(=O)(=O)c1ccc(C(F)(F)F)cc1)N1CCC(c2ccccc2)C(c2ccc(Cl)cc2)=N1)C(N)=O (single isomer, unassigned) [Compound 32a, (Z)-2-(3-(4-chlorophenyl)-4-phenyl-N′-((4-(trifluoromethyl)phenyl)sulfonyl)-1,4,5,6-tetrahydropyridazine-1-carboximidamido) butanamide] | 785 |  |
| C/C(N)=N/C(=N/S(=O)(=O)c1ccc(C(F)(F)F)cc1)N1CCC(c2ccccc2)C(c2ccc(F)cc2)=N1 (stereo not shown) [Compound 10zc, (Z)—N—((Z)-1-aminoethylidene)-3-(4-fluorophenyl)-4-phenyl-N′-((4-(trifluoromethyl)phenyl)sulfonyl)-5,6-dihydropyridazine-1 (4H)-carboximidamide] | 120 |  |
| CS/C(N)=N\C(=N\S(=O)(=O)c1ccc(Cl)cc1)N1CCC(c2ccccc2)C(c2ccc(Cl)cc2)=N1 (stereo not shown) [Compound 11a, methyl (Z)—N′—((Z)-(3-(4-chlorophenyl)-4-phenyl-5,6-dihydropyridazin-1 (4H)-yl)(((4-chlorophenyl)sulfonyl)imino)methyl)carbamimidothioate] | 210 |  |
| CS/C(N)=N\C(=N\S(=O)(=O)c1cccc(C(F)(F)F)c1)N1CCC(c2ccccc2)C(c2ccc(Cl)cc2)=N1 (stereo not shown) [Compound 11c, methyl (Z)—N′—((Z)-(3-(4-chlorophenyl)-4-phenyl-5,6-dihydropyridazin-1 (4H)-yl)(((3-(trifluoromethyl)phenyl)sulfonyl)imino)methyl)carbamimidothioate] | 234 |  |
| CS/C(N)=N\C(=N\S(=O)(=O)c1ccc(OC(F)(F)F)cc1)N1CCC(c2ccccc2)C(c2ccc(Cl)cc2)=N1 (stereo not shown) [Compound 11d, methyl (Z)—N′—((Z)-(3-(4-chlorophenyl)-4-phenyl-5,6-dihydropyridazin-1 (4H)-yl)(((4-(trifluoromethoxy)phenyl)sulfonyl)imino)methyl)carbamimidothioate] | 151 |  |
| CS/C(N)=N\C(=N\S(=O)(=O)c1ccc(C#N)cc1)N1CCC(c2ccccc2)C(c2ccc(Cl)cc2)=N1 (stereo not shown) [Compound 11e, methyl (Z)—N′—((Z)-(3-(4-chlorophenyl)-4-phenyl-5,6-dihydropyridazin-1 (4H)-yl)(((4-cyanophenyl)sulfonyl)imino)methyl)carbamimidothioate] | 138 |  |
| CS/C(N)=N\C(=N\S(=O)(=O)c1ccc2ccccc2c1)N1CCC(c2ccccc2)C(c2ccc(Cl)cc2)=N1 (stereo not shown) [Compound 11f, methyl (Z)—N′—((Z)-(3-(4-chlorophenyl)-4-phenyl-5,6-dihydropyridazin-1 (4H)-yl)((naphthalen-2-ylsulfonyl)imino)methyl)carbamimidothioate] | 590 |  |
| CS/C(N)=N\C(=N\S(=O)(=O)c1ccccc1)N1CCC(c2ccccc2)C(c2ccc(Cl)cc2)=N1 (stereo not shown) [Compound 11g, methyl (Z)—N′—((Z)-(3-(4-chlorophenyl)-4-phenyl-5,6-dihydropyridazin-1 (4H)-yl)((phenylsulfonyl)imino)methyl)carbamimidothioate] | 1600 |  |
| COc1ccc(S(=O)(=O)/N=C(/N=C(/N)SC)N2CCC(c3ccccc3)C(c3ccc(Cl)cc3)=N2)cc1 (stereo not shown) [Compound 11h, methyl (Z)—N′—((Z)-(3-(4-chlorophenyl)-4-phenyl-5,6-dihydropyridazin-1 (4H)-yl)(((4-methoxyphenyl)sulfonyl)imino)methyl)carbamimidothioate] | 1070 |  |
| C[Se]/C(N)=N\C(=N\S(=O)(=O)c1ccc(Cl)cc1)N1CCC(c2ccccc2)C(c2ccc(Cl)cc2)=N1 (stereo not shown) [Compound 12a, methyl (Z)—N′—((Z)-(3-(4-chlorophenyl)-4-phenyl-5,6-dihydropyridazin-1 (4H)-yl)(((4-chlorophenyl)sulfonyl)imino)methyl)carbamimidoselenoate] |  | 45 |
| C[Se]/C(N)=N\C(=N\S(=O)(=O)c1ccc(OC(F)(F)F)cc1)N1CCC(c2ccccc2)C(c2ccc(Cl)cc2)=N1 (stereo not shown) [Compound 12d, methyl (Z)—N′—((Z)-(3-(4-chlorophenyl)-4-phenyl-5,6-dihydropyridazin-1 (4H)-yl)(((4-(trifluoromethoxy)phenyl)sulfonyl)imino)methyl)carbamimidoselenoate] | 194 |  |
| C[Se]/C(N)=N\C(=N\S(=O)(=O)c1ccc(C#N)cc1)N1CCC(c2ccccc2)C(c2ccc(Cl)cc2)=N1 (stereo not shown) [Compound 12e, methyl (Z)—N′—((Z)-(3-(4-chlorophenyl)-4-phenyl-5,6-dihydropyridazin-1 (4H)-yl)(((4-cyanophenyl)sulfonyl)imino)methyl)carbamimidoselenoate] | 179 |  |
| C[Se]/C(N)=N\C(=N\S(=O)(=O)c1ccc2ccccc2c1)N1CCC(c2ccccc2)C(c2ccc(Cl)cc2)=N1 (stereo not shown) [Compound 12f, methyl (Z)—N′—((Z)-(3-(4-chlorophenyl)-4-phenyl-5,6-dihydropyridazin-1 (4H)-yl)((naphthalen-2-ylsulfonyl)imino)methyl)carbamimidoselenoate] | 317 |  |
| C[Se]/C(N)=N\C(=N\S(=O)(=O)c1ccccc1)N1CCC(c2ccccc2)C(c2ccc(Cl)cc2)=N1 (stereo not shown) [Compound 12g, methyl (Z)—N′—((Z)-(3-(4-chlorophenyl)-4-phenyl-5,6-dihydropyridazin-1 (4H)-yl)((phenylsulfonyl)imino)methyl)carbamimidoselenoate] | 2800 |  |
| COc1ccc(S(=O)(=O)/N=C(/N=C(/N)[Se]C)N2CCC(c3ccccc3)C(c3ccc(Cl)cc3)=N2)cc1 (stereo not shown) [Compound 12h, methyl (Z)—N′—((Z)-(3-(4-chlorophenyl)-4-phenyl-5,6-dihydropyridazin-1 (4H)-yl)(((4-methoxyphenyl)sulfonyl)imino)methyl)carbamimidoselenoate] | 1100 |  |
| C[Se]/C(N)=N/C(=N/S(=O)(=O)c1ccc(C(F)(F)F)cc1)N1CCC(c2ccccc2)C(c2ccc(F)cc2)=N1 (stereo not shown) [Compound 12i, methyl (E)-N′—((Z)-(3-(4-fluorophenyl)-4-phenyl-5,6-dihydropyridazin-1 (4H)-yl)(((4-(trifluoromethyl)phenyl)sulfonyl)imino)methyl)carbamimidoselenoate] | 110 |  |
| CC(=O)N/C(N)=N\C(=N\S(=O)(=O)c1ccc(C#N)cc1)N1CCC(c2ccccc2)C(c2ccc(Cl)cc2)=N1 (stereo not shown) [Compound 13a, N—((Z)—N′—((Z)-(3-(4-chlorophenyl)-4-phenyl-5,6-dihydropyridazin-1 (4H)-yl)(((4-cyanophenyl)sulfonyl)imino)methyl)carbamimidoyl) acetamide] | 24.6 |  |
| CC(=O)N/C(N)=N\C(=N\S(=O)(=O)c1ccc(C(F)(F)F)cc1)N1CCC(c2ccccc2)C(c2ccc(Cl)cc2)=N1 (stereo not shown) [Compound 14, N—((Z)—N′—((Z)-(3-(4-chlorophenyl)-4-phenyl-5,6-dihydropyridazin-1 (4H)-yl)(((4-(trifluoromethyl)phenyl)sulfonyl)imino)methyl)carbamimidoyl) acetamide] | 5 |  |
| O=S(=O)(/N=C(\N=C1/CCCN1)N1CCC(c2ccccc2)C(c2ccc(Cl)cc2)=N1)c1ccc(C(F)(F)F)cc1 (stereo not shown) [Compound 17, (E)-3-(4-chlorophenyl)-4-phenyl-N—((E)-pyrrolidin-2-ylidene)-N′-((4-(trifluoromethyl)phenyl)sulfonyl)-5,6-dihydropyridazine-1 (4H)-carboximidamide] | 117 |  |
